Measured values as given in patent US9877921B2 (NOVA SOUTHEASTERN UNIVERSITY, priority 2011, dated 2018).

Assay: Discoloration (degradation) after nanoparticle processing by microfluidization
Type: physicochemical
Details: after high energy fluidization
Protocol: Nanoparticles were fabricated from epinephrine base or epinephrine bitartrate (Bit) using high energy fluidization (microfluidization) techniques. […] Particles sizes were measured before and after size reduction using a Mastersizer (Malvern) and/or a NiComp 370 Submicron Particle Sizer (NiComp). The particles were lyophilized (freeze-dried) using a bench top lyophilizer (ART Inc.).
The main problem was discoloration (a brown color formed) due to degradation.

Q: For CNC[C@H](O)c1ccc(O)c(O)c1 [Epinephrine Bit, epinephrine bitartrate], which “Sample Color after Processing (discoloration indicating instability)” value is on record?
A: did not show any discoloration
